# Legend:
# [1] = test system: rabbit serum obtained by immunizing a rabbit with the SARS-CoV strain Frankfurt 1; format: binding; set-up: Binding of a rabbit serum to linear peptides / Binding of a rabbit serum to looped peptides / Rabbit serum linear peptides / Rabbit serum looped peptides / Binding of a rabbit serum to linear peptides of protein N of SARS-CoV Urbani (Rabbit serum linear peptides) / Binding of a rabbit serum to looped/cyclic peptides of protein N of SARS-CoV Urbani (Rabbit serum looped peptides): unit not given here
# [2] = test system: control sera (pooled serum of ten healthy LUMC hospital workers; commercial negative donor pooled serum from the Dutch bloodbank); format: binding, human; set-up: Binding of Control serum LUMC to linear peptides / Binding of Control serum Blood-bank to linear peptides / Binding of Control serum LUMC to looped peptides / Binding of Control Serum Blood-Bank to Looped peptides / Binding of Control serum LUMC to linear peptides of the protein M of SARS-CoV Urbani / Binding of Control serum Blood-bank to linear peptides of the protein M of SARS-CoV Urbani / Binding of Control serum LUMC to looped peptides of the protein M of SARS-CoV Urbani / Binding of Control Serum Blood-Bank to Looped peptides of the protein M of SARS-CoV Urbani: unit not given here
# [3] = test system: antibodies in sera from SARS patients (sera 1a, 1b, 2, 6, 37, 62, London, SARS-yellow, SARS-green); format: binding, human; set-up: Binding of serum 6 to linear peptides of protein X1 of SARS-CoV Urbani / Binding of serum 37 to linear peptides of protein X1 of SARS-CoV Urbani / Binding of serum 6 to looped/cyclic peptide (PEPSCAN-ELISA) / Binding of serum 37 to looped/cyclic peptide (PEPSCAN-ELISA) / Binding of serum 37 to looped/cyclic peptides of protein X1 of SARS-CoV Urbani / Binding of serum 6 to linear peptides of protein X2 / Binding of serum 37 to linear peptides of protein X2 / Binding of serum 37 to looped/cyclic peptides of protein X2 of SARS-CoV Urbani / Binding of serum 6 to linear peptides of protein M of SARS-CoV Urbani / Binding of serum 37 to linear peptides of protein M of SARS-CoV Urbani / Binding of serum 6 to looped/cyclic peptides of protein M of SARS-CoV Urbani / Binding of serum 37 to looped/cyclic peptides of protein M of SARS-CoV Urbani / Binding of serum 6 to linear peptides of protein X3 of SARS-CoV Urbani / Binding of serum 37 to linear peptides of protein X3 of SARS-CoV Urbani / Binding of serum 37 to looped/cyclic peptides of protein X3 of SARS-CoV Urbani / Binding of serum 6 to linear peptides of protein X4 of SARS-CoV Urbani / Binding of serum 37 to linear peptides of protein X4 of SARS-CoV Urbani / Binding of serum 37 to looped/cyclic peptides of protein X4 of SARS-CoV Urbani / Binding of serum 6 to linear peptides of protein X5 of SARS-CoV Urbani / Binding of serum 37 to linear peptides of protein X5 of SARS-CoV Urbani / Binding of serum 37 to looped/cyclic peptides of protein X5 of SARS-CoV Urbani / Binding of serum 6 to linear peptides of protein N of SARS-CoV Urbani / Binding of serum 37 to linear peptides of protein N of SARS-CoV Urbani / Binding of serum 6 to linear peptide (PEPSCAN-ELISA) / Binding of serum 1a to looped/cyclic peptides of protein N of SARS-CoV Urbani / Binding of serum 1b to looped/cyclic peptides of protein N of SARS-CoV Urbani / Binding of serum 2 to looped/cyclic peptides of protein N of SARS-CoV Urbani / Binding of serum 6 to looped/cyclic peptides of protein N of SARS-CoV Urbani / Binding of serum 37 to looped/cyclic peptides of protein N of SARS-CoV Urbani / Binding of serum 62 to looped/cyclic peptides of protein N of SARS-CoV Urbani / Binding of serum London to looped/cyclic peptides of protein N of SARS-CoV Urbani / Binding of serum SARS-green to looped/cyclic peptides of protein N of SARS-CoV Urbani: unit not given here
sequence,measurement,setting,value
LKQLLEQWNLVIGFL,Rabbit serum linear peptides,[1],0.2
same,Rabbit serum looped peptides,[1],0.1
same,Binding of Control Serum Blood-Bank to Looped peptides of the protein M of SARS-CoV Urbani,[2],0.7
same,Binding of Control serum Blood-bank to linear peptides of the protein M of SARS-CoV Urbani,[2],0.7
same,Binding of Control serum LUMC to linear peptides of the protein M of SARS-CoV Urbani,[2],0.3
same,Binding of Control serum LUMC to looped peptides of the protein M of SARS-CoV Urbani,[2],0.7
same,Binding of serum 1a to linear peptides of protein M of SARS-CoV Urbani,[3],0.7
same,Binding of serum 1a to looped/cyclic peptides of protein M of SARS-CoV Urbani,[3],0.6
same,Binding of serum 1b to linear peptides of protein M of SARS-CoV Urbani,[3],0.5
same,Binding of serum 1b to looped/cyclic peptides of protein M of SARS-CoV Urbani,[3],0.6
same,Binding of serum 2 to linear peptides of protein M of SARS-CoV Urbani,[3],0.6
same,Binding of serum 2 to looped/cyclic peptides of protein M of SARS-CoV Urbani,[3],0.4
same,Binding of serum 6 to linear peptides of protein M of SARS-CoV Urbani,[3],0.7
same,Binding of serum 6 to looped/cyclic peptides of protein M of SARS-CoV Urbani,[3],0.8
same,Binding of serum 37 to linear peptides of protein M of SARS-CoV Urbani,[3],0.7
same,Binding of serum 37 to looped/cyclic peptides of protein M of SARS-CoV Urbani,[3],0.5
same,Binding of serum 62 to linear peptides of protein M of SARS-CoV Urbani,[3],0.7
same,Binding of serum 62 to looped/cyclic peptides of protein M of SARS-CoV Urbani,[3],0.7
same,Binding of serum London to linear peptides of protein M of SARS-CoV Urbani,[3],1.0
same,Binding of serum London to looped/cyclic peptides of protein M of SARS-CoV Urbani,[3],0.2
same,Binding of serum SARS-green to linear peptides of protein M of SARS-CoV Urbani,[3],0.2
same,Binding of serum SARS-green to looped/cyclic peptides of protein M of SARS-CoV Urbani,[3],0.4
same,Binding of serum SARS-yellow to linear peptides of protein M of SARS-CoV Urbani,[3],0.1
same,Binding of serum SARS-yellow to looped/cyclic peptides of protein M of SARS-CoV Urbani,[3],0.7
LKTHRMCKYTQSTAL,Binding of a rabbit serum to linear peptides,[1],0.4
same,Binding of a rabbit serum to looped peptides,[1],0.5
same,Binding of Control Serum Blood-Bank to Looped peptides,[2],0.7
same,Binding of Control serum Blood-bank to linear peptides,[2],0.7
same,Binding of Control serum LUMC to linear peptides,[2],0.6
same,Binding of Control serum LUMC to looped peptides,[2],0.6
same,Binding of serum 1a to linear peptides of protein X2,[3],0.8
same,Binding of serum 1a to looped/cyclic peptides of protein X2 of SARS-CoV Urbani,[3],0.6
same,Binding of serum 1b to linear peptides of protein X2,[3],0.6
same,Binding of serum 1b to looped/cyclic peptides of protein X2 of SARS-CoV Urbani,[3],0.6
same,Binding of serum 2 to linear peptides of protein X2,[3],0.5
same,Binding of serum 2 to looped/cyclic peptides of protein X2 of SARS-CoV Urbani,[3],0.4
same,Binding of serum 6 to linear peptides of protein X2,[3],0.6
same,Binding of serum 6 to looped/cyclic peptides of protein X2 of SARS-CoV Urbani,[3],0.5
same,Binding of serum 37 to linear peptides of protein X2,[3],0.7
same,Binding of serum 37 to looped/cyclic peptides of protein X2 of SARS-CoV Urbani,[3],0.5
same,Binding of serum 62 to linear peptides of protein X2,[3],0.7
same,Binding of serum 62 to looped/cyclic peptides of protein X2 of SARS-CoV Urbani,[3],0.6
same,Binding of serum London to linear peptides of protein X2,[3],0.5
same,Binding of serum London to looped/cyclic peptides of protein X2 of SARS-CoV Urbani,[3],0.2
same,Binding of serum SARS-green to linear peptides of protein X2,[3],0.5
same,Binding of serum SARS-green to looped/cyclic peptides of protein X2 of SARS-CoV Urbani,[3],0.3
same,Binding of serum SARS-yellow to linear peptides of protein X2,[3],0.8
same,Binding of serum SARS-yellow to looped/cyclic peptides of protein X2 of SARS-CoV Urbani,[3],0.6
LKVTAFQHQNSKKTT,Binding of a rabbit serum to linear peptides,[1],0.6
same,Binding of a rabbit serum to looped peptides,[1],0.3
same,Binding of Control Serum Blood-Bank to Looped peptides,[2],0.3
same,Binding of Control serum Blood-bank to linear peptides,[2],0.4
same,Binding of Control serum LUMC to linear peptides,[2],0.8
same,Binding of Control serum LUMC to looped peptides,[2],0.4
same,Binding of serum 1a to linear peptides of protein X2,[3],0.5
same,Binding of serum 1a to looped/cyclic peptides of protein X2 of SARS-CoV Urbani,[3],0.3
same,Binding of serum 1b to linear peptides of protein X2,[3],0.4
same,Binding of serum 1b to looped/cyclic peptides of protein X2 of SARS-CoV Urbani,[3],0.2
same,Binding of serum 2 to linear peptides of protein X2,[3],0.3
same,Binding of serum 2 to looped/cyclic peptides of protein X2 of SARS-CoV Urbani,[3],0.1
same,Binding of serum 6 to linear peptides of protein X2,[3],0.3
same,Binding of serum 6 to looped/cyclic peptides of protein X2 of SARS-CoV Urbani,[3],0.1
same,Binding of serum 37 to linear peptides of protein X2,[3],0.5
same,Binding of serum 37 to looped/cyclic peptides of protein X2 of SARS-CoV Urbani,[3],0.2
same,Binding of serum 62 to linear peptides of protein X2,[3],0.3
same,Binding of serum 62 to looped/cyclic peptides of protein X2 of SARS-CoV Urbani,[3],0.4
same,Binding of serum London to linear peptides of protein X2,[3],0.2
same,Binding of serum London to looped/cyclic peptides of protein X2 of SARS-CoV Urbani,[3],0.1
same,Binding of serum SARS-green to linear peptides of protein X2,[3],0.2
same,Binding of serum SARS-green to looped/cyclic peptides of protein X2 of SARS-CoV Urbani,[3],0.1
same,Binding of serum SARS-yellow to linear peptides of protein X2,[3],0.7
same,Binding of serum SARS-yellow to looped/cyclic peptides of protein X2 of SARS-CoV Urbani,[3],0.2
LLEQWNLVIGFLFLA,Rabbit serum linear peptides,[1],0.6
same,Rabbit serum looped peptides,[1],0.0
same,Binding of Control Serum Blood-Bank to Looped peptides of the protein M of SARS-CoV Urbani,[2],0.2
same,Binding of Control serum Blood-bank to linear peptides of the protein M of SARS-CoV Urbani,[2],0.5
same,Binding of Control serum LUMC to linear peptides of the protein M of SARS-CoV Urbani,[2],0.4
same,Binding of Control serum LUMC to looped peptides of the protein M of SARS-CoV Urbani,[2],0.5
same,Binding of serum 1a to linear peptides of protein M of SARS-CoV Urbani,[3],0.7
same,Binding of serum 1a to looped/cyclic peptides of protein M of SARS-CoV Urbani,[3],0.5
same,Binding of serum 1b to linear peptides of protein M of SARS-CoV Urbani,[3],0.6
same,Binding of serum 1b to looped/cyclic peptides of protein M of SARS-CoV Urbani,[3],0.2
same,Binding of serum 2 to linear peptides of protein M of SARS-CoV Urbani,[3],0.4
same,Binding of serum 2 to looped/cyclic peptides of protein M of SARS-CoV Urbani,[3],0.4
same,Binding of serum 6 to linear peptides of protein M of SARS-CoV Urbani,[3],0.2
same,Binding of serum 6 to looped/cyclic peptides of protein M of SARS-CoV Urbani,[3],0.4
same,Binding of serum 37 to linear peptides of protein M of SARS-CoV Urbani,[3],0.4
same,Binding of serum 37 to looped/cyclic peptides of protein M of SARS-CoV Urbani,[3],0.4
same,Binding of serum 62 to linear peptides of protein M of SARS-CoV Urbani,[3],0.4
same,Binding of serum 62 to looped/cyclic peptides of protein M of SARS-CoV Urbani,[3],0.4
same,Binding of serum London to linear peptides of protein M of SARS-CoV Urbani,[3],0.3
same,Binding of serum London to looped/cyclic peptides of protein M of SARS-CoV Urbani,[3],0.2
same,Binding of serum SARS-green to linear peptides of protein M of SARS-CoV Urbani,[3],0.3
same,Binding of serum SARS-green to looped/cyclic peptides of protein M of SARS-CoV Urbani,[3],0.2
same,Binding of serum SARS-yellow to linear peptides of protein M of SARS-CoV Urbani,[3],0.2
same,Binding of serum SARS-yellow to looped/cyclic peptides of protein M of SARS-CoV Urbani,[3],0.4

# Source: patent publication US20070128217A1 (priority 2003, published 2007)
